This assay has as its system mouse L1210 leukemic cells. Description: In vitro cytotoxicity, inhibition of cell growth (cell counter). Type of assay: cell-based. Conditions: read-out: IC50 (concentration for which 50% inhibition of cell growth is obtained). The protocol: The cytotoxic activity in vitro was evaluated by the determination of the IC50 (concentration for which 50% inhibition of cell growth is obtained) on mouse L1210 leukemic cells.
The IC50 is evaluated by means of a cell counter.

Each structure is given as a SMILES string.

On to `CN1CCOP12=NP(N1CC1)(N1CC1)=NP(N1CC1)(N1CC1)=N2` (centres unmarked) [Compound 1, 4-methyl-7,7,9,9-tetra-1-aziridinyl-7,7,9,9-tetrahydro-1-oxa-4,6,8,10-tetraaza-5λ^5-7,9-triphosphaspiro-[4,5]-deca-5,7,9-triene], for which the IC50 is 9 µM.

On to `C1COP2(=NP(N3CC3)(N3CC3)=NP(N3CC3)(N3CC3)=N2)N1` (centres unmarked) [Compound 2, 7,7,9,9-Tetra-1-aziridinyl-7,7,9,9-tetrahydro-1-oxa-4,6,8,10-tetraaza-5λ^5,7,9-triphosphaspiro-[4,5]-deca-5,7,9-triene], for which the IC50 amounted to 8.7 µM.

For `C1CNP2(=NP(N3CC3)(N3CC3)=NP(N3CC3)(N3CC3)=N2)OC1` (centres unmarked) [Compound 3, 2,2,4,4-Tetra-1-aziridinyl-2,2,4,4-tetrahydro-7-oxa-1,3,5,11-tetraaza-2,4,6λ^5-triphosphaspiro-[5,5]-undeca-1,3,5-triene], the IC50 is 2.3 µM. Take `C1CCC(N2CCCOP23=NP(N2CC2)(N2CC2)=NP(N2CC2)(N2CC2)=N3)CC1` (centres unmarked) [Compound 4, 11-Cyclohexyl-2,2,4,4-tetra-1-aziridinyl-2,2,4,4-tetrahydro-7-oxa-1,3,5,11-tetraaza-2,4,6λ^5-triphosphaspiro-[5,5]-undeca-1,3,5-triene]: the IC50 came out at 9.9 µM.

With `c1ccc(CN2CCOP23=NP(N2CC2)(N2CC2)=NP(N2CC2)(N2CC2)=N3)cc1` (centres unmarked) [Compound 5, 4-Phenylmethyl-7,7,9,9-tetra-1-aziridinyl-7,7,9,9-tetrahydro-1-oxa-4,6,8,10-tetraaza-5λ^5,7,9-triphosphaspiro-[4,5]-deca-5,7,9-triene], the IC50 is 5.8 µM. To `c1ccc(CN2CCCOP23=NP(N2CC2)(N2CC2)=NP(N2CC2)(N2CC2)=N3)cc1` (centres unmarked) [Compound 6, 11-Phenylmethyl-2,2,4,4-tetra-1-aziridinyl-2,2,4,4-tetrahydro-7-oxa-1,3,5,11-tetraaza-2,4,6λ^5-triphosphaspiro-[5,5]-undeca-1,3,5-triene] belongs 5.8 µM; to `c1ccc(CCN2CCOP23=NP(N2CC2)(N2CC2)=NP(N2CC2)(N2CC2)=N3)cc1` (centres unmarked) [Compound 7, 4-(2-Phenylethyl)-7,7,9,9-tetra-1-aziridinyl-7,7,9,9-tetrahydro-1-oxa-4,6,8,10-tetraaza-5λ^5,7,9-triphosphaspiro-[4,5]-deca-5,7,9-triene], 7.8 µM. To `c1ccc(CCN2CCCOP23=NP(N2CC2)(N2CC2)=NP(N2CC2)(N2CC2)=N3)cc1` (centres unmarked) [Compound 8, 11-(2-Phenylethyl)-2,2,4,4-tetra-1-aziridinyl-2,2,4,4-tetrahydro-7-oxa-1,3,5,11-tetraaza-2,4,6λ^5-triphosphaspiro-[5,5]-undeca-1,3,5-triene] belongs 6.5 µM.

The values are drawn from patent US5182273A, “Spirocyclic N, O derivatives of cyclotriphosphazenes and their use in therapy” (Pierre Fabre Medicament, priority 1990, dated 1993).
